Data taken from article PMC3511043, “The multicomponent approach to N-methyl peptides: total synthesis of antibacterial (–)-viridic acid and analogues” (Beilstein Journal of Organic Chemistry, 2012).

Test system: Aliivibrio fischeri
Assay: Aliivibrio fischeri assay: inhibition of bacterial luminescence
Assay type: cell-based
Conditions: inhibition of bacterial luminescence vs untreated bacteria; 96-well plates; concentration series in DMSO/medium (2% v/v); 24 h incubation at 23 °C in the dark; saline BOSS medium (3% NaCl w/w); read-out: IC50 against the Gram-negative bacterium Aliivibrio fischeri
Excerpt: To our knowledge no biological screening of pure (−)-viridic acid or its analogues has been performed, and due to the potential of natural peptides and peptoids as antibacterial agents, it was decided to investigate their activity against the Gram-negative bacterium Aliivibrio fischeri. […] Although (−)-viridic acid (1) was isolated thirty years ago, this is the first unambiguous report concerning its biological activity. Based upon the results presented above, it seems that the configuration of the stereogenic center has almost no influence on the antibacterial effect of 1.
The Aliivibrio fischeri assay is based on the measurement of the inhibition of bacterial luminescence against a negative control. Bacteria were pregrown on a saline BOSS medium (3% NaCl w/w) whereby at a certain population density, bacterial luminescence will start. The bacterial suspension was diluted, distributed into 96-well microtiter plates (mtp) and the respective compounds were applied as a concentration series as solutions in DMSO/medium (2% v/v) and mixed. The luminescence of bacteria treated with the respective compounds was measured after 24 h incubation at 23 °C in the dark, in relation to controls of untreated bacteria.
1 Neves Filho, R. A. W.; Stark, S. S.; Morejon, M. C.; Westermann, B.;
3 Malkov, A. V.; Stoncius, S.; Mac Dougall, K. N.; Mariani, A.; McGeoch, G. D.; […]

Q: For `CC(C)[C@@H](C(=O)Nc1ccccc1C(=O)O)N(C)C(=O)CNC(=O)c1ccccc1N(C)C` [(−)-1, (−)-viridic acid], which IC50 is on record?
A: 45 ± 4.4 µM

Q: Which IC50 does the source give for `CC(C)C(C(=O)Nc1ccccc1C(=O)O)N(C)C(=O)CNC(=O)c1ccccc1N(C)C` (racemic) [(±)-1, racemic viridic acid] here?
A: 38.4 ± 5.8 µM
